Values after ≈ are worked out from the molar mass of the structure shown. Where a SMILES comes first, the peptide text is derived from it. [ ]: non-standard residue; d: D form. The star is where a group is joined. NODAGA = O=C(O)CN1CCN(CC(=O)O)CCN(C(CCC(=O)*)C(=O)O)CC1; NMeA = CN[CH](C)C(=O)O
Assays:
Citrobacter freundii [1] = experiment: Antibacterial activity against Citrobacter freundii expressing NDM-1 assessed as decrease in meropenem MIC at 4 mg/L incubated for 18 to 20 hrs by broth microdilution method; type: functional; conditions: time 18-20 hrs
Citrobacter freundii [2] = experiment: Antibacterial activity against Citrobacter freundii expressing NDM-1 assessed as decrease in meropenem MIC at 8 mg/L incubated for 18 to 20 hrs by broth microdilution method; type: functional; conditions: time 18-20 hrs
Escherichia coli [3] = experiment: Antibacterial activity against Escherichia coli expressing NDM-1 assessed as decrease in meropenem MIC at 4 mg/L incubated for 18 to 20 hrs by broth microdilution method; type: functional; conditions: time 18-20 hrs
[4] = Inhibition of NDM-1 (unknown origin) using nitrocefin as substrate; parameters: species or system Homo sapiens
[5] = Inhibition of NDM-1 (unknown origin) expressed in Escherichia coli; parameters: species or system Homo sapiens
Klebsiella pneumoniae = experiment: Synergistic antibacterial activity against carbapenem-resistant Klebsiella pneumoniae expressing NDM-1 measured after 18 hrs in the presence of meropenem; type: functional
[6] = Inhibition of NDM-1 (unknown origin) measured after 10 mins; parameters: species or system Homo sapiens
Escherichia coli [7] = experiment: Antibacterial activity against Escherichia coli measured after 18 hrs; type: functional
[8] = Binding affinity to NDM-1 (unknown origin) assessed as inhibition constant using cefazolin as substrate incubated for 5 mins measured for every 1 sec by isothermal titration calorimetric analysis; parameters: species or system Homo sapiens
L929 = experiment: Cytotoxicity against mouse L929 cells at 250 uM incubated for 48 hrs by MTT assay relative to control; type: toxicity, cell-based; conditions: l929, 48 h
Escherichia coli [9] = experiment: Synergistic antibacterial activity against Escherichia coli BL21 (DE3) expressing NDM-1 incubated for 12 hrs in the presence of cefuroxime sodium by two-fold checkerboard microdilution method; type: functional
[10] = Inhibition of NDM-1 (unknown origin) by HPLC analysis; parameters: species or system Homo sapiens
[11] = Inhibition of NDM-1 (unknown origin) using cefazolin as substrate incubated for 12 hrs by Agilent UV8453 UV-Vis spectrometric analysis; parameters: species or system Homo sapiens
Homo sapiens = organism: Homo sapiens; experiment: Inhibition of NDM-1 (unknown origin) at 16 uM using cefazolin as substrate incubated for 12 hrs by Agilent UV8453 UV-Vis spectrometric analysis relative to control
[12] = Binding affinity to NDM-1 (unknown origin) assessed as kinetic constant using cefazolin as substrate preincubated for 60 sec followed by cefazolin addition after 60 sec by isothermal titration calorimetric assay; parameters: species or system Homo sapiens
[13] = Inhibition of NDM-1 (unknown origin); parameters: species or system Homo sapiens
[14] = Binding affinity to NDM-1 (unknown origin) assessed as inhibition constant using meropenem as substrate incubated for 10 mins; parameters: species or system Homo sapiens
[15] = Inhibition of NDM-1 (unknown origin) using meropenem as substrate incubated for 10 mins; parameters: species or system Homo sapiens
[16] = Inhibition of NDM-1 (unknown origin) using cefuroxime sodium as substrate incubated for 5 mins by UV-1800 spectrophotometric analysis; parameters: species or system Homo sapiens
[17] = Inhibition of NDM-1 (unknown origin) expressed in Escherichia coli Zc-YN3
[18] = Inhibition of NDM-1 (unknown origin) by using nitrocefin as substrate preincubated for 10 min followed by nitrocefin addition incubated after 30 min; parameters: species or system Homo sapiens
[19] = Oral bioavailability in BALB/c mouse relative to control; type: ADME, organism-based; conditions: in vivo

## c1ccc(CN(CCN(Cc2ccccn2)Cc2ccccn2)Cc2ccccn2)nc1
Citrobacter freundii [1]
  MIC: 0.5 µg/mL
Citrobacter freundii [2]
  MIC: 0.06 µg/mL

## O=C(O)CN1CCN(CC(=O)O)CCN(CC(=O)O)CC1
Escherichia coli [3]
  MIC: 0.125 µg/mL

## N[C@@H](CN[C@@H](CN[C@@H](CC(=O)O)C(=O)O)C(=O)O)C(=O)O
[4]
  IC50: 4 µM

## O=C(O)[C@@H]1SC[C@H]2CS[C@H](CS)N21
[5]
  IC50: 23 µM

## O=C(O)[C@H]1SC[C@@H]2CS[C@@H](CS)N21
[5]
  IC50: 109 µM

## CC1(C)S[C@@H]2CS[C@@H](CS)N2[C@H]1C(=O)O
[5]
  IC50: 180 µM

## O=C1N(Cc2cccc3ccccc23)c2ccccc2C12NN=C(c1ccccc1)S2 (configuration not stated)
Klebsiella pneumoniae
  MIC: 2 µM
[6]
  IC50: 6.6 µM
Escherichia coli [7]
  MIC: 4 µM (≈ 1.69 µg/mL)

## CC1(C)S[C@H]2CS[C@H](CS)N2[C@@H]1C(=O)O
[5]
  IC50: 200 µM

## O=C(NNC(=S)S)c1ccccc1O
[8]
  Ki: 0.29 µM

## O=C(NNC(=S)[S][K])c1ccccc1O
L929
  Activity: > 80%

## CC(C(=O)NC(Cc1ccccc1)C(=O)N(C)C(C)C(=O)NC(Cc1ccccc1)C(N)=O)N(C)C(=O)CCC(C(=O)O)N1CCN(CC(=O)O)CCN(CC(=O)O)CC1 (configuration not stated) ({NODAGA}-[NMeA]F[NMeA]F-NH2; configuration not given here)
Escherichia coli [3]
  MIC: 0.125 µg/mL

## CC1(C)S[C@@H]2[C@H](NC(=O)[C@H](N)c3ccccc3)C(=O)N2[C@H]1C(=O)O [AMPICILLIN]
Escherichia coli [9]
  MIC: 32 µM

## O=C(O)[C@H]1O[C@@H](Oc2cc3oc(-c4ccccc4)cc(=O)c3c(O)c2O)[C@H](O)[C@@H](O)[C@@H]1O [BAICALIN]
[10]
  IC50: 3.89 µM

## O=C(O)C(=O)CBr [BROMOPYRUVATE]
[11]
  IC50: 2.57 µM
Homo sapiens
  inhibition: > 90%
[12]
  Ki: 3.8 µM

## O=C(O)CN(CCN(CC(=O)O)CC(=O)O)CC(=O)O [EDETIC ACID]
[13]
  IC50: 1.6 µM

## CCCCCCCCCCCC1=C(O)C(=O)C=C(O)C1=O [EMBELIN]
[14]
  Ki: 0.19 µM
[15]
  IC50: 2.1 µM

## COc1ccc([C@@H]2CC(=O)c3c(O)cc(O[C@@H]4O[C@H](CO[C@@H]5O[C@@H](C)[C@H](O)[C@@H](O)[C@H]5O)[C@@H](O)[C@H](O)[C@H]4O)cc3O2)cc1O [HESPERIDIN]
[16]
  IC50: 3.35 µM

## C=CCc1ccc(O)c(-c2cc(CC=C)ccc2O)c1 [MAGNOLOL]
[17]
  IC50: 6.47 µM

## COC(=O)C[C@H]1[C@]2(C)C3=C(C)[C@H](c4ccoc4)C[C@H]3O[C@@H]2[C@@H]2OC(=O)[C@]3(C)C=CC(=O)[C@@]1(C)[C@@H]23 [NIMBOLIDE]
[13]
  IC50: 1.34 µM

## COc1cc(/C=C/c2ccc(O)cc2)cc(OC)c1 [PTEROSTILBENE]
[18]
  IC50: 15.37 µg/mL (≈ 60 µM)
[19]
  bioavailability: 80%
